In patent US20230026437A1, “BACTERIA-ASSOCIATED VOLATILE ORGANIC COMPOUNDS” (THE STATE OF ISRAEL, MINISTRY OF AGRICULTURE & RURAL …, priority 2019, published 2023):
“Also recorded” adds a separate entry of the source.

How the values were obtained:
[1] = tested on: Macrophomina phaseolina, Rhizoctonia solani, Pythium aphanidermatum and Sclerotinia sclerotiorum; assay: Antifungal activity of synthetic VOCs, plate assay; format: cell-based
Procedure: Antifungal activity of synthetic VOCs. The GC-MS identified VOCs produced by NYG5 were screened through literature for their any biological activity and the novel compound which were not tested so far were purchased as pure standard compound of the most representative VOCs from Hollan Moran Ltd., Israel. The pure synthetic compounds were tested against four different fungal pathogens (Macrophomina phaseolina, Rhizoctonia solani, […]) in small plastic petri plates. A freshly growing mycelial agar bid (4 mm) were placed in the center of PDA medium and one sterile paper disc (10 mm) were kept on the lid of the plate. After fungal inoculation, the tested compounds (10 μl for each) were placed on sterile filter disc and plates were double sealed with parafilm in inverted position having mycelium disc on the top side of the plate to check the direct effect of volatiles on mycelial growth. Three individual replicates were maintained for each treatment including control having sterile filter disc and solvent (70% ethanol) in which compounds were diluted. […] The plates were incubated at 25° C. and radial growth of fungal mycelial was measured at day interval until 3 days.

[2] = tested on: Fusarium oxysporum spores; assay: Effect of 2,3-Hexanedione (C3) on fungal spores in liquid; format: cell-based
Procedure: Effect of 2, 3-Hexanedione (C3) on fungal spores in liquid. To test the effect of C3 on spore germination, fungal spores were harvested after 3 days growth of Fusarium oxysporum in Potato Dextrose Broth medium with continuous shaking at 25° C. To collect the spores, 3 days old grown mycelial in broth medium was filtered through sterilized glass wools and filtrate was centrifuged at 4000 rpm. The supernatant was discarded, and pellet was suspended in sterilized water to a dilution of 10^6 (spores/ml) and counted through hemocytometer. Spore inhibition test was performed in 1.5 ml Eppendorf tube having 100 μl of 5×10^5 spores and mixed with a final concentration of 1 ppm, 10 ppm and 100 ppm of C3 compound. The tubes were tightly closed and sealed with parafilm and incubated at 25° C. Spore germination was observed under compound microscope by placing 20 μl of solution droplet from control and treatment on glass slide. The germination was reconfirmed by growing the 20 μl of solution from tube on PDA simultaneously to check the mycelial growth. All experiments had three individual replicates and repeated twice having identical conditions.

[3] = tested on: Fusarium oxysporum f sp. Cubense; assay: C3 against Fusarium oxysporum f sp. Cubense in-vitro; format: cell-based
Macrophomina = assay: Effect of C3 on fungal morphology (actively growing mycelium); format: cell-based, Macrophomina phaseolina; details: C3 exposure, plate assay
[4] = tested on: Meloidogyne javanica larvae; assay: In-vitro nematicidal activity of 2,3-Hexanedione (C3), two-compartment plate; format: in vivo; details: 2 days of exposure, no direct contact
Text: In-vitro nematicidal activity of 2, 3-Hexanedione (C3). Nematicidal efficacy of 2,3-Hexanedione had been tested against Meloidogyne javanica larvae. M. javanica eggs were extracted from the infected root of tomato Lycopersicon esculentum using standard protocol. The experiment was set up in a two-compartment plate to test the nematicidal activity of C3 compound against M. javanica larvae. One small glass vial was placed in one-half of compartment having 300 M. javanica larvae in 1000 of 0.001 M IVIES and sterile filter disc were kept in another compartment. The discs were spot with 10 μl of different concentration (0.05 and 0.5 ppm) of C3 compound and double sealed with parafilm. Each treatment had three independent replicates with control (without any compound only sterile disc). After 2 days of incubation M. javanica were carefully washed through 30 μm sieve and allowed to pass the sieve for 3 hours. All incubations were performed in the dark at 25±1° C. Survived M. javanica were counted under microscope.

Arabidopsis thaliana = assay: Effect of 2,3-Hexanedione (C3) on A. thaliana growth, two-compartment plate; format: in vivo; details: 2 weeks of exposure
Procedure: Experimental set up for evaluation of 2,3-Hexanedione (C3) effect on Arabidopsis thaliana. Plant material and seed germination. A. thaliana (Ecotype Col-1) seeds were obtained from ARO Volcani center. The seeds were surface sterilized thrice with sterile distilled water and kept at 4° C. till 48 hours for stratification in dark on moist filter paper in petri plate. After two days of stratification the seeds were placed for germination on Murashige and Skoog (MS) medium with vitamins, 3% sucrose (30 g/1), and 0.03% phytagel (pH 5.7) for 3 days at 23° C. Effect of 2,3-Hexanedione (C3) on A. thaliana growth. Effect of 2,3-Hexanedione on A. thaliana development was evaluated in-vitro conditions in a two-compartment plate assay. Uniformly germinated seeds (5) were transplanted on MS medium in one side of compartment plate and another compartment was used to place the tested compound C3 similarly with other experiments. […] The control plants were maintained without any compound in two compartment petri plates. The plants were grown under 14-hour day/10-hour night cycles at 23° C. for 2 weeks and growth parameters were observed.

PR1 gene = assay: Effect of C3 on PR gene expression in A. thaliana (qRT-PCR); format: in vivo, Arabidopsis thaliana; details: leaves, 7 days of exposure, no direct contact
Text: (§1) Effect of 2,3-Hexanedione (C3) on PR gene expression in A. thaliana. An individual experiment was designed similarly as described above to check the effect of 2,3-Hexanedione on PR gene induction in A. thaliana. The plants were exposed with 2,3-Hexanedione in a two compartment plates for one week. After one week, leaves from individual plants of each replicate were pooled separately for RNA isolation. Total RNA was isolated from the leaf tissue of plant using RNA isolation kit (Nucleo spin RNA Plant, MACHEREY-NAGEL) according the manufacturer's instruction. Before starting the protocol, leaves were ground under liquid N2 and 100 mg of grinded tissue was used for RNA isolation. RNA quantification was done using Qubit analyzer. Purified RNA was used for cDNA synthesis using first strand Invitrogen cDNA synthesis kit according the manufacturer's instructions with […] of RNA. Synthesized cDNA was diluted to 1000 times and 10 ul aliquots were stored for gene expression analysis. The relative gene expression level of PR1, PR2, PR5 and Actin (as internal control) were quantified for C3 exposed and control plants. For qRT PCR a 20 ul reaction was programmed at 95° C. denaturation for 1 min, followed by 40 cycles of amplification at 95° C. for 5s, 60° C. for 30s, and 72° C. for 30s.

PR2 gene = assay: as above; format: in vivo, Arabidopsis thaliana; details: leaves, 7 days of exposure, no direct contact
Text: as §1

PR5 = assay: as above; format: in vivo, Arabidopsis thaliana; details: leaves, 7 days of exposure, no direct contact
Text: as §1

N. tabacum = assay: Effect of C3 on tobacco seedlings growth, two-compartment plate; format: in vivo, Nicotiana tabacum; details: 0.01 and 0.05 ppm, 14 days of growth
Text: Seeds of N. tabacum were placed on MS agar media in a two-compartment plate with C3 in different concentrations on a sterile paper disk on the other half of the plate without direct contact between the compartments. In the control treatments, a sterile disk with ethanol was used.

| Compound | effect on mycelial growth ([1]; higher concentrations, 100 and 500 ppm) | effect on fungi ([1]; 0.5 ppm) | effect of volatile exposure on all tested fungal pathogens ([1]; volatile exposure) | germination of spores ([2]; 1 ppm in liquid, at least for 3 days) | growth of treated spores on PDA medium ([2]; C3-treated spores plated on PDA) | effect against the fungus ([3]; 50 ppm) | effect against the fungus ([3]; 200 ppm) | effect on actively-growing mycelia (Macrophomina) | larval viability ([4]; 0.05 ppm) | nematicidal activity ([4]; 0.5 ppm) [%] | effect on plant growth parameters (Arabidopsis thaliana; 0.005 ppm and 0.5 ppm) | effect on plant growth (Arabidopsis thaliana; 0.05 ppm) | induction of PR1 gene (PR1 gene) [fold] | upregulation of PR2 gene transcript (PR2 gene) [fold] | PR5 at transcriptional level (PR5) | plant biomass (N. tabacum) | primary roots length (N. tabacum) |
| --- | --- | --- | --- | --- | --- | --- | --- | --- | --- | --- | --- | --- | --- | --- | --- | --- | --- |
| CC(=O)CCC(C)C [Compound C2, 5-Methyl-2-hexanone] | inhibitory effect | – | – | – | – | – | – | – | – | – | – | – | – | – | – | – | – |
| CCCC(=O)C(C)=O [Compound C3, 2,3-Hexanedione] | – | lethal | fungicidal effect | no germination | no growth was observed | inhibitory effect | lethal effect | mycelium growth inhibition | significantly reduced | 80 | did not show any effect | enhanced the growth; also recorded: significant increase | 3 | 5 | no significant difference | significantly enhanced | longer |
